Source: US4558127A, “5-Fluorouracil nitroxyl derivatives possessing antitumor activity” (priority 1984, dated 1985)
Entries after “also recorded” stand apart in the source; their conditions may differ. Counter-ions that a name gives are not always drawn.

Experiments:
sarcoma 180 = conditions: background art; cited from earlier work
Harding-Passey melanoma = conditions: background art; cited from earlier work
[1] = background art; cited from earlier work
[2] = Toxicity (LD50), intraperitoneal administration, mongrel white mice, Burns method; type: in vivo, mouse
Excerpt: Toxicity of the compounds according to the present invention has been determined on mongrel white mice in experimental intraperitoneal administration of these compounds and evaluated by the Burns method (using curves of accumulation of the animal death frequencies vs. dose).
As the toxicity characteristic use was made of the dose causing death of 50% of the animals employed for the experiment (LD50).
For the determination of toxicity of (1,3-bis-(2,2,5,5-tetramethyl-1-oxyl-Δ^3 -pyrrolin-3-oyl)-5-fluorouracyl(compound I), 1-(2,2,5,5-tetramethyl-1-oxyl-Δ^3 -pyrrolin-3-oyl)-5-fluorouracyl (compound II) and 3-(2,2,5,5-tetramethyl-1-oxyl-Δ^3 -pyrrolin-3-oyl)-5-fluorouracyl (compound III), these compounds were administered intraperitoneally in the form of an emulsion in a 10% aqueous solution of polyoxyethylsorbitan monooleate (Tween-80, Ferak Berlin West Germany).
For the determination of toxicity of sodium salt of 3-(2,2,5,5-tetramethyl-1-oxyl-Δ^3 -pyrrolin-3-oyl)-5-fluorouracyl (compound IV), Ftorafur and 5-fluorouracyl, these compounds were also administered intraperitoneally in the form of aqueous solutions.

[3] = tested on: alveolar carcinoma of liver; conditions: background art; cited from earlier work
leukemia La [4] = assay: Antitumor activity on grafted leukemia La in mice (ELS, kinetic criterion, chemotherapeutic index); type: in vivo, mouse; conditions: for Chemotherapeutic index I60 = LD10/ED60 / ELS (extension of average life span) / kinetic criterion (.chi.) = 1-.phi.t/.phi.c: La, C57Bl mice; for Chemotherapeutic index I60 = LD10/ED60: i/p
Excerpt: (§1) For the determination of antitumor activity these compounds (I, II, III, IV), 5-fluorouracyl and Ftorafur were used in the same solvents as in the determination of toxicity.
(§2) The determination of antitumor activity was effected on grafted tumors of mice: leukemia L-1210, leukemia P-388, Leukemia La, melanoma B-16, adenocarcinoma 755 (Ca-755), as well as on grafted tumors of rats: Schwetz erythroleukosis, Walker carcinosarcoma (WCS), Geren carcinoma.
Leukemia La was grafted intraperitoneally using a suspension of leukemic cells in a physiological solution. The inoculum contained 10^8 of leukemia cells. […]
In the determination of the antitumor activity the test compounds were introduced in equitoxic doses.
(§3) The criterion of the antitumor activity for leukemia P-338, L-1210 and La is the extension of an average life span (ELS) of the test animals as compared to the control ones, expressed in percent and calculated by the formula: [formula] wherein Lt --life span of animals in the test group;
(§4) Lc --life span of animals in the control group, i.e. without administration of the test compounds.
(§5) The comparative assessment of the scope of therapeutic action is effected using chemotherapeutic indices I40, I60 and I100 : I40 =LD10 /ED40, I60 =LD10 /ED60 I100 =LD10 /ED100, where LD10 =dose causing death of 10% of the animals; ED40, ED60 and ED100 are effective doses causing extension of the animal's life span by 40, 60 and 100 percent respectively.

Schwetz erythroleukosis = assay: Antitumor activity on grafted Schwetz erythroleukosis in rats; type: in vivo, rat; conditions: for Inhibition of tumor volume gain: mongrel rats, days 7-14
Excerpt: as §1, §2
(§6) In the determination of the antitumor activity the test compounds were introduced in equitoxic doses. Ftorafur was also used in the optimal dose which is equal to […].
(§7) As the criterion of antitumor activity on solid tumors used is the inhibition (I) of the tumor volume gain in comparison with the control, expressed in percent and calculated by the formula: [formula] wherein Vc --average volume of the tumor in the control,
(§8) Vt --average volume of the tumor in the experiment.

Walker carcinosarcoma = conditions: background art; cited from earlier work
melanoma B-16 = assay: Antitumor activity on grafted melanoma B-16 in mice (inhibition of tumor volume gain); type: in vivo, mouse; conditions: for Inhibition of tumor volume gain: B-16, CBAF1 mice
Excerpt: as §1, §2, §6, §7, §8

adenocarcinoma 755 = assay: Kinetic curves of tumor volume gain, adenocarcinoma 755 in mice (FIG. 2); conditions: C 57 B1 mice, equimolar single doses 0.2 mmol/kg i/p, daily over 10 days
Experimental: To reveal the antitumor activity and kinetic characteristic of the therapeutic effectiveness of compound (IV) and Ftorafur in the case of adenocarcinoma 755, a series of experiments was conducted on mice C 57 B1. Adenocarcinoma 755 was grafted using a tumor cell suspension in a physiological solution (dilution 1:1 by mass) and was administered hypodermally in the dose of 0.3 ml to each mouse. The test compounds were administered intraperitoneally, starting from the 1-st day after grafting of the tumor, daily over the period of 10 days.
The tumor volume increase (V) of adenocarcinoma 755 was determined in cm^3 for 28 days (.tau.).
In the kinetic curve 5 experimental points corresponding to the control experiment are conventionally shown as circles, while experimental points corresponding to the use of Ftorafur are conventionally shown as squares.

leukemia L-1210 = assay: Antitumor activity on grafted leukemia L-1210 in mice; type: in vivo, mouse; conditions: for ELS (extension of average life span): control life span 7,5 days
Excerpt: as §1, §2
Leukemia L-1210 was grafted intraperitoneally, 10^5 cells in 0.2 ml of ascitic liquid.
as §6, §3, §4, §5

grafted tumors = assay: Antitumor activity on grafted tumors, overall assessment; type: in vivo, mice and rats
Excerpt: as §1, §2, §6, §3
As the criterion of antitumor activity on solid tumors used is the inhibition (I) of the tumor volume gain in comparison with the control, expressed in percent and calculated by the formula: [formula] wherein Vc --average volume of the tumor in the control, […]

[5] = Stability against hydrolysis; type: physicochemical; conditions: room temperature, pH 3 to 11, about 5 hours
leukemia P-388 = assay: Antitumor activity on grafted leukemia P-388 in mice; type: in vivo, mouse; conditions: for ELS (extension of average life span): control life span 10 days
Excerpt: as §1, §2
Leukemia P-388 was grafted intraperitoneally, 10^6 cells in 0.2 ml of ascitic liquid.
as §6, §3, §4, §5

Geren carcinoma = assay: Antitumor activity on grafted Geren carcinoma in rats; type: in vivo, rat; conditions: mongrel rats, single dose 60 mg/kg i/p, days 7-16
Excerpt: as §1, §2, §6, §7, §8

[6] = tested on: adenocarcinoma 755 (Ca-755); assay: Antitumor activity on grafted adenocarcinoma 755 in mice; type: in vivo, mouse
Excerpt: as §1, §2, §6, §7, §8

Solubility = type: physicochemical; conditions: water
leukemia La [7] = assay: Kinetic curves of spleen mass, leukemia La in mice (FIG. 1); type: in vivo, mouse; conditions: equimolar single doses 0.2 mmol/kg i/p
Experimental: Leukemia La was grafted intraperitoneally by means of a suspension of leukemic cells in a physiological solution. The inoculum contained 10^8 of leukemic cells. Compound (IV), Ftorafur and 5-fluorouracyl were also administered intraperitoneally so that the first administration was effected 3 hours after the tumor grafting, and then--on a daily basis over the period of seven days.
Determined were the variations of mass (M) of mice spleen in g over 14 days (.tau.). The obtained data were used to plot a graph in coordinates M-.tau. represented in FIG. 1.

[8] = Reaction of aqueous solutions; type: physicochemical
[9] = tested on: Walker carcinosarcoma (WCS); assay: Antitumor activity on grafted Walker carcinosarcoma in rats; type: in vivo, rat
Excerpt: as §1, §2, §6, §7, §8

[10] = single dose 45 mg/kg i/p, days 1-6
[11] = Ca-755, C57Bl mice, single dose 65 mg/kg i/p, days 1-10

Q: For `O=c1[nH]c(=O)n(C2CCCO2)cc1F` (stereo not drawn) [Ftorafur, 1-(α-furanidyl)-5-fluorouracyl, reference compound], which “activity in respect of sarcoma 180” value (sarcoma 180) is on record?
A: rather high activity

Q: And the “activity in respect of Harding-Passey melanoma” value (Harding-Passey melanoma)?
A: rather high activity

Q: What about the “toxicity / side effects in words” value [1] of the same compound?
A: inhibits hemopoiesis and causes complications on the side of the gastro-intestinal tract

Q: And the LD50 ([2]; mouse, in vivo, ip, mice, intraperitoneal, I, II, III as emulsion in 10% aqueous Tween-80, IV, Ftorafur, 5-fluorouracyl as aqueous solutions)?
A: 640 mg/kg

Q: And the “activity in respect of alveolar carcinoma of liver” value [3]?
A: rather high activity

Q: And the “Chemotherapeutic index I60 = LD10/ED60” value (leukemia La [4]; days 1,5,9)?
A: 2.0

Q: And the “ELS (extension of average life span)” value (leukemia La [4]; [10])?
A: 15%

Q: What about the “kinetic criterion (.chi.) = 1-.phi.t/.phi.c” value (from here on “kinetic criterion”) (leukemia La [4]; [10]) of the same compound?
A: 0.17

Q: What about the “ELS (extension of average life span)” value (leukemia La [4]; single dose 300 mg/kg i/p, days 1,5,9) of the same compound?
A: 60%

Q: And the “Inhibition of tumor volume gain” value (Schwetz erythroleukosis; single dose 90 mg/kg i/p)?
A: 15%

Q: And the “activity in respect of Walker carcinosarcoma” value (Walker carcinosarcoma)?
A: rather high activity

Q: And the “Inhibition of tumor volume gain” value (melanoma B-16; single dose 300 mg/kg, days 1,5,9, mode of grafting printed i/p)?
A: 10%

Q: What about the “inhibition of tumor growth, in words” value (adenocarcinoma 755) of the same compound?
A: no antitumor activity

Q: With `CC1(C)C=C(C(=O)n2c(=O)[nH]cc(F)c2=O)C(C)(C)N1[O]` [IV, sodium salt of 3-(2,2,5,5-tetramethyl-1-oxyl-Δ^3-pyrrolin-3-oyl)-5-fluorouracyl] as the compound, how does the “Chemotherapeutic index I60 = LD10/ED60” value (leukemia L-1210; L-1210, BDF1 mice, i/p, days 1-7) read?
A: 5,6

Q: What about the “ELS (extension of average life span)” value (leukemia L-1210; L-1210, BDF1 mice, single dose 65 mg/kg i/p, days 1-9) of the same compound?
A: 100%

Q: And the “ELS (extension of average life span)” value (leukemia L-1210; L-1210, BDF1 mice, single dose 75 mg/kg i/p, days 1-7)?
A: 60%

Q: What about the “antitumor activity, leukemia L-1210, in words” value (leukemia L-1210; mouse, in vivo) of the same compound?
A: high antitumor activity

Q: What about the “antileukemic effect, in words” value (grafted tumors; in vivo) of the same compound?
A: high antileukemic activity

Q: What about the “effect on solid tumors, in words” value (grafted tumors; solid tumors) of the same compound?
A: most active; also recorded: high antitumor activity in respect of solid tumors

Q: And the stability against hydrolysis [5]?
A: do not undergo any noticeable hydrolytical decomposition

Q: And the “Chemotherapeutic index I100 = LD10/ED100” value (leukemia P-388; P-388, BDF1 mice, i/p, days 1,3,5,7,9)?
A: 4,2

Q: What about the “ELS (extension of average life span)” value (leukemia P-388; P-388, BDF1 mice, single dose 75 mg/kg i/p, days 1-7) of the same compound?
A: 90%

Q: And the “ELS (extension of average life span)” value (leukemia P-388; P-388, BDF1 mice, single dose 100 mg/kg i/p, days 1,3,5,7,9)?
A: 100%

Q: And the “antitumor activity, leukemia P-388, in words” value (leukemia P-388; mouse, in vivo)?
A: high antitumor activity

Q: What about the “Inhibition of tumor volume gain” value (Geren carcinoma) of the same compound?
A: 20%

Q: And the “Inhibition of tumor volume gain” value [6, 11]?
A: 70%

Q: What about the “kinetic criterion” value [6, 11] of the same compound?
A: 0.3

Q: What about the “antitumor activity, adenocarcinoma 755, in words” value ([6]; mouse, in vivo) of the same compound?
A: considerable antitumor activity

Q: And the solubility in water (Solubility)?
A: very well soluble in water

Q: And the toxicity in words ([2]; general statement)?
A: low toxicity

Q: What about the “toxicity compared with Ftorafur, in words” value ([2]; mice, i/p) of the same compound?
A: approach toxicity of Ftorafur

Q: What about the “less toxic than 5-fluorouracyl, fold” value ([2]; mice, i/p, relative to 5-fluorouracyl) of the same compound?
A: 5 times

Q: And the “Toxicity, LD50” value ([2]; mice, intraperitoneal, I, II, III as emulsion in 10% aqueous Tween-80, IV, Ftorafur, 5-fluorouracyl as aqueous solutions)?
A: 510 mg/kg

Q: And the “Chemotherapeutic index I60 = LD10/ED60” value (leukemia La [4]; days 1,3,5,7,9)?
A: 4,2

Q: What about the “kinetic criterion” value (leukemia La [4]; single dose 75 mg/kg i/p, days 1-7 after grafting) of the same compound?
A: 0,7

Q: What about the “ELS (extension of average life span)” value (leukemia La [4]; single dose 75 mg/kg i/p, days 1-7 after grafting, control life span 6,5 days) of the same compound?
A: 80%

Q: What about the “ELS (extension of average life span)” value (leukemia La [4]; single dose 100 mg/kg i/p, days 1,3,5,7,9, control life span 6,5 days) of the same compound?
A: 60%

Q: And the “chemotherapeutic index I60 relative to that of 5-fluorouracyl, fold” value (leukemia La [4]; leukemia La)?
A: 1.2 time

Q: What about the “chemotherapeutic index I60 relative to that of Ftorafur, fold” value (leukemia La [4]; leukemia La) of the same compound?
A: 2 times

Q: And the “therapeutic effect compared with 5-fluorouracyl, in words” value (leukemia La [4]; leukemia La)?
A: comparable with that of 5-fluorouracyl

Q: What about the “effectiveness superior to Ftorafur, fold” value (leukemia La [4]; leukemia La, equitoxic doses, comparable treatment schedules) of the same compound?
A: 5 times

Q: What about the “effectiveness relative to Ftorafur and 5-fluorouracyl, fold” value (Schwetz erythroleukosis; comparable doses and treatment procedures) of the same compound?
A: 2-3 times

Q: And the “Inhibition of tumor volume gain” value (Schwetz erythroleukosis; single dose 75 mg/kg i/p)?
A: 45%

Q: What about the “inhibition of leukemia La (spleen mass gain), in words” value (leukemia La [7]; C 57 B1 mice, daily over seven days) of the same compound?
A: most effective in inhibition of leukemia La

Q: What about the “activity relative to 5-fluorouracyl (spleen mass gain), in words” value (leukemia La [7]) of the same compound?
A: by several times superior

Q: What about the “reaction of aqueous solutions” value [8] of the same compound?
A: alkaline reaction

Q: And the “Inhibition of tumor volume gain” value (melanoma B-16; single dose 75 mg/kg i/p, days 1-10)?
A: 30%

Q: What about the “effectiveness relative to Ftorafur, fold” value (melanoma B-16; melanoma B-16, comparable doses and treatment procedures) of the same compound?
A: 3 times

Q: And the “inhibition of tumor growth, in words” value (adenocarcinoma 755)?
A: considerable inhibition of the tumor growth

Q: And the “Inhibition of tumor volume gain” value ([9]; WCS, mongrel rats, single dose 60 mg/kg i/p, days 1-10)?
A: 75%

Q: And the “antitumor activity, Walker carcinosarcoma, in words” value ([9]; rat, in vivo)?
A: considerable antitumor activity
